One block for each compound: values may come before it.
Legend:
[1] = Stability in CD1 mouse small intestine homogenate assessed as hydrolysis rate minute at 96 uM; assay type: ADME, tissue-based; details: tissue homogenate
[2] = Stability in human small intestine homogenate assessed as hydrolysis rate at 96 uM; assay type: ADME, tissue-based; details: tissue homogenate
[3] = Stability in CD1 mouse small intestine homogenate assessed as hydrolysis rate after 30 mins at 96 uM; assay type: ADME, tissue-based; details: read-out: Activity
[4] = Stability in human small intestine homogenate assessed as hydrolysis rate after 30 mins at 96 uM; assay type: ADME, tissue-based; details: read-out: Activity
[5] = Stability in human Caco-2 cell homogenate assessed as half life; assay type: ADME, Colon
Blood = assay: Drug level in CD1 mouse portal blood assessed as gemcitabine level at 14.3 mg/kg, po after 5 mins; assay type: ADME, organism-based; set-up: dose 14.3 mg/kg, route oral; details: in vivo
HCT-116 [6] = assay: Antitumor activity in human HCT116 cells xenografted CD1 mouse assessed as maximum tumor reduction at 160 mg/kg, ip administered as total 4 doses for every 3 days measured after 6 weeks; assay type: functional; set-up: scale not given: the % may be the effect or the level left; details: route intraperitoneal
[7] = Chemical stability in buffer solution assessed as hydrolysis at pH 1 after 4 hrs at 40 degC; assay type: physicochemical; details: read-out: solubility
[8] = Chemical stability in buffer solution assessed as hydrolysis at pH 2 after 4 hrs at 40 degC; assay type: physicochemical; details: read-out: solubility
[9] = Chemical stability in buffer solution assessed as hydrolysis at pH 4 after 4 hrs at 40 degC; assay type: physicochemical; details: read-out: solubility
[10] = Chemical stability in buffer solution assessed as hydrolysis at pH 6 after 4 hrs at 40 degC; assay type: physicochemical; details: read-out: solubility
[11] = Chemical stability in buffer solution assessed as hydrolysis at pH 8 after 4 hrs at 40 degC; assay type: physicochemical; details: read-out: solubility
[12] = Solubility in buffer solution at pH 1 after 4 hrs at 40 degC; assay type: physicochemical; details: pH 1, 4 h
[13] = Solubility in buffer solution at pH 2 after 4 hrs at 40 degC; assay type: physicochemical; details: pH 2, 4 h
[14] = Solubility in buffer solution at pH 4 after 4 hrs at 40 degC; assay type: physicochemical; details: pH 4, 4 h
[15] = Solubility in buffer solution at pH 6 after 4 hrs at 40 degC; assay type: physicochemical; details: pH 6, 4 h
[16] = Solubility in buffer solution at pH 8 after 4 hrs at 40 degC; assay type: physicochemical; details: pH 8, 4 h
[17] = Stability in human liver S9 fraction assessed as hydrolysis rate at 100 uM; assay type: ADME, subcellular; details: s9, 100 µM
[18] = Drug level in CD1 mouse portal blood at 14.3 mg/kg, po after 5 mins; assay type: ADME, organism-based; set-up: dose 14.3 mg/kg, route oral; details: read-out: Drug uptake
Mus musculus [19] = assay: Gemcitabine AUC in CD1 mouse at 14.3 mg/kg, po; assay type: ADME, organism-based; set-up: dose 14.3 mg/kg, route oral; details: in vivo
Mus musculus [20] = assay: Gemcitabine Cmax in CD1 mouse at 14.3 mg/kg, po; assay type: ADME, organism-based; set-up: dose 14.3 mg/kg, route oral; details: in vivo
[21] = AUC in po dosed CD1 mouse; assay type: ADME, organism-based; details: plasma
[22] = Cmax in po dosed CD1 mouse; assay type: ADME, organism-based; set-up: route oral; details: in vivo
[23] = Tmax in po dosed CD1 mouse; assay type: ADME, organism-based; details: in vivo
HCT-116 [24] = assay: Antitumor activity in human HCT116 cells xenografted CD1 mouse assessed as maximum tumor reduction at 3.77 mg/kg, po administered daily for 14 days measured after 6 weeks; assay type: functional; set-up: scale not given: the % may be the effect or the level left
HCT-116 [25] = assay: Antitumor activity in human HCT116 cells xenografted CD1 mouse assessed as maximum tumor reduction at 7.55 mg/kg, po administered daily for 14 days measured after 6 weeks; assay type: functional; set-up: scale not given: the % may be the effect or the level left
[26] = Stability in CD1 mouse liver S9 fraction assessed as hydrolysis rate at 100 uM; assay type: ADME, subcellular; details: s9, 100 µM

Activity [1]: 2.3 nmol/mg/min | Activity [2]: 3.7 nmol/mg/min | metabolised at 0.5 h, 96 µM [3]: 100% | metabolised at 0.5 h, 96 µM [4]: 100% | half-life [5]: 75 min
SMILES: CC[C@H](C)[C@H](N)C(=O)OC[C@H]1O[C@@H](n2ccc(N)nc2=O)C(F)(F)[C@@H]1O

Drug uptake (Blood): 99 ng/mL
SMILES: Cl.Nc1ccn([C@@H]2O[C@H](CO)[C@@H](O)C2(F)F)c(=O)n1 [GEMCITABINE HYDROCHLORIDE]
Activity (HCT-116 [6]): 71.5%

degraded at 4 h [7]: 21% | degraded at 4 h [8]: 12% | degraded at 4 h [9]: 2% | degraded at 4 h [10]: 0% | degraded at 4 h [11]: 0% | solubility [12]: 1.12% | solubility [13]: 1.79% | solubility [14]: > 2% | solubility [15]: > 2% | Activity [16]: > 2% | Activity [1]: < 0.01 nmol/mg/min | Activity [2]: < 0.01 nmol/mg/min | metabolised at 0.5 h, 96 µM [3]: 1% | metabolised at 0.5 h, 96 µM [4]: 1% | Activity [17]: 27 pmol/min/mg | concentration at 5 min [18]: 653 ng/mL | AUC (Mus musculus [19]): 778 ng·h/mL | Cmax (Mus musculus [20]): 373 ng/mL | AUC [21]: 536 ng·h/mL | Cmax [22]: 535 ng/mL | Tmax [23]: 30 min | Activity [26]: 11 pmol/mg/min
SMILES: CCCC(CCC)C(=O)Nc1ccn([C@@H]2O[C@H](CO)[C@@H](O)C2(F)F)c(=O)n1 [LY-2334737]
Activity (HCT-116 [24]): 56.3% | Activity (HCT-116 [25]): 67.1%
